Target: T1, HPK1 (Homo sapiens, UniProt Q92918)
T1 construct: A HiBiT tag was introduced by CRISPR on the N terminus of HPK1 in Jurkat cells; host or cells: Jurkat cells (ATCC TIB-152), monoclonal line with CRISPR knock-in of HiBiT at the endogenous HPK1 locus
Assay: HPK1 Cellular HiBit Degradation Assay
Format: cell-based
Settings: HiBiT HPK1 Jurkat cells, 24 hrs; for DC50: concentration at which 50% of HPK1 was remaining, read-out: DC50 Category; for Dmax: Jurkat, read-out: Dmax Category
Summary of the method: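 Jurkat cells with CRISPR knock-in N-terminal HiBiT-HPK1 were treated with CTMs (11-point, 3.16-fold, 10 uM to 0.1 nM final) for 24 hrs at 37° C. HiBiT lytic luminescence, with parental Jurkat as background and DMSO as 100%, gave % HPK1 remaining; four-parameter fit yielded DC50 and Dmax (100 minus lowest % remaining).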

[1] = maximum degradation vs DMSO vehicle control

T1 sequence (Q92918 whole entry): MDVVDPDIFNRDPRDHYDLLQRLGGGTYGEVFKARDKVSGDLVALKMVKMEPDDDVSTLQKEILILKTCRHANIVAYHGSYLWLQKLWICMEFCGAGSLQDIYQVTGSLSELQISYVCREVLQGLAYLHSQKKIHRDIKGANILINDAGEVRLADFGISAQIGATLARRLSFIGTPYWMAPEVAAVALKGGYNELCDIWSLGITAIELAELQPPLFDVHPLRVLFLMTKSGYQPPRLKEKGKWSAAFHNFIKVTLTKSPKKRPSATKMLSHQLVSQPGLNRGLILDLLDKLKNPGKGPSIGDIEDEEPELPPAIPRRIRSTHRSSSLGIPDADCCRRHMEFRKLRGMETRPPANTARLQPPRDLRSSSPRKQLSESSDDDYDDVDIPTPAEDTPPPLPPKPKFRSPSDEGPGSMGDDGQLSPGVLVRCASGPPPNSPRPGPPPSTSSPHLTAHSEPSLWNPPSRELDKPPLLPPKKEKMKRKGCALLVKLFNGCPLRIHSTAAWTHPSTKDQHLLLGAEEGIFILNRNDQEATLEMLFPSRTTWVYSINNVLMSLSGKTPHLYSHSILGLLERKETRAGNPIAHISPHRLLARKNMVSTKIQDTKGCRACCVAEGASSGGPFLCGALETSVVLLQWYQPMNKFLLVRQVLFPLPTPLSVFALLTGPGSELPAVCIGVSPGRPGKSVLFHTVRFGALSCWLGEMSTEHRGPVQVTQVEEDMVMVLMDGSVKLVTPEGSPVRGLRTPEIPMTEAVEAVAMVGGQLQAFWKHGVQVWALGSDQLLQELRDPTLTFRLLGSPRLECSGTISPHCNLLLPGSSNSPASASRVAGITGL

| SMILES | DC50 [µM] | Dmax [1] [%] | Dmax Category [1] |
| --- | --- | --- | --- |
| CC(C)n1cnc2cc(-c3ccc4c(c3)N([C@H]3C[C@@H](N5C6CCC5COC6)C3)C(=O)C43CCN(C(=O)C4(C)CCN(C(=O)CC5CCN(c6ccc(C7CCC(=O)NC7=O)cn6)CC5)CC4)CC3)nc(NC3CC3)c21 (mixture of isomers) [Example 222, (3RS)-3-[6-(4-{2-[4-({6-[4-(cyclopropylamino)-3-(propan-2-yl)-3H-imidazo[4,5-c]pyridin-6-yl]-2-oxo-1-[(1S,3S)-3-{3-oxa-8-Azabicyclo[3.2.1]octan-8-yl}cyclobutyl]-1,2-dihydrospiro[indole-3,4′-piperidin]-1′-yl}carbonyl)-4-methylpiperidin-1-yl]-2-oxoethyl}piperidin-1-yl)pyridin-3-yl]piperidine-2,6-dione] | 0.1 to 0.5 | 50 to 70 |  |
| CC(C)n1cnc2cc(-c3ccc4c(c3)N([C@H]3C[C@@H](N5CC6CCC(C6)C5)C3)C(=O)C43CCN(C(=O)C4(C)CCN(C(=O)CC5CCN(c6ccc(C7CCC(=O)NC7=O)cn6)CC5)CC4)CC3)nc(NC3CC3)c21 (mixture of isomers) [Example 223, (3RS)-3-[6-(4-{2-[4-({6-[4-(cyclopropylamino)-3-(propan-2-yl)-3H-imidazo[4,5-c]pyridin-6-yl]-2-oxo-1-[(1S,3S)-3-{3-azabicyclo[3.2.1]octan-3-yl}cyclobutyl]-1,2-dihydrospiro[indole-3,4′-piperidin]-1′-yl}carbonyl)-4-methylpiperidin-1-yl]-2-oxoethyl}piperidin-1-yl)pyridin-3-yl]piperidine-2,6-dione] | < 0.1 | 70 to 85 |  |
| CC(C)n1cnc2cc(-c3ccc4c(c3)N([C@H]3C[C@@H](N5CCCCC5)C3)C(=O)C43CCN(C(=O)C4(C)CCN(C(=O)CN5CCC(c6ccc(C7CCC(=O)NC7=O)cn6)CC5)CC4)CC3)nc(NC3CC3)c21 (mixture of isomers) [Example 224, (3RS)-3-[6-(1-{2-[4-({6-[4-(cyclopropylamino)-3-(propan-2-yl)-3H-imidazo[4,5-c]pyridin-6-yl]-2-oxo-1-[(1S,3S)-3-(piperidin-1-yl)cyclobutyl]-1,2-dihydrospiro[indole-3,4′-piperidin]-1′-yl}carbonyl)-4-methylpiperidin-1-yl]-2-oxoethyl}piperidin-4-yl)pyridin-3-yl]piperidine-2,6-dione] | 0.1 to 0.5 | 70 to 85 |  |
| CC(C)n1cnc2cc(-c3ccc4c(c3)N([C@H]3C[C@@H](N5CCCCC5)C3)C(=O)C43CCN(C(=O)C4(C)CCN(CC5CCN(c6ccc(C7CCC(=O)NC7=O)cn6)CC5)CC4)CC3)nc(NC3CC3)c21 (mixture of isomers) [Example 225, (3RS)-3-[6-(4-{[4-({6-[4-(cyclopropylamino)-3-(propan-2-yl)-3H-imidazo[4,5-c]pyridin-6-yl]-2-oxo-1-[(1S,3S)-3-(piperidin-1-yl)cyclobutyl]-1,2-dihydrospiro[indole-3,4′-piperidin]-1′-yl}carbonyl)-4-methylpiperidin-1-yl]methyl}piperidin-1-yl)pyridin-3-yl]piperidine-2,6-dione] | 0.5 to 1 | 50 to 70 |  |
| Cc1cc(C2CCC(=O)NC2=O)ccc1N1CCC(C(=O)N2CCC(C)(C(=O)N3CCC4(CC3)C(=O)N([C@H]3C[C@@H](N5CCCCC5)C3)c3cc(-c5cc6ncn(C(C)C)c6c(NC6CC6)n5)ccc34)CC2)CC1 (mixture of isomers) [Example 226, (3RS)-3-(4-{4-[4-({6-[4-(cyclopropylamino)-3-(propan-2-yl)-3H-imidazo[4,5-c]pyridin-6-yl]-2-oxo-1-[(1S,3S)-3-(piperidin-1-yl)cyclobutyl]-1,2-dihydrospiro[indole-3,4′-piperidin]-1′-yl}carbonyl)-4-methylpiperidine-1-carbonyl]piperidin-1-yl}-3-methylphenyl)piperidine-2,6-dione] | 0.1 to 0.5 | 70 to 85 |  |
| Cc1cc(N2CCC(C(=O)N3CCC(C)(C(=O)N4CCC5(CC4)C(=O)N([C@H]4C[C@@H](N6CCCCC6)C4)c4cc(-c6cc7ncn(C(C)C)c7c(NC7CC7)n6)ccc45)CC3)CC2)ccc1C1CCC(=O)NC1=O (mixture of isomers) [Example 227, (3RS)-3-(4-{4-[4-({6-[4-(cyclopropylamino)-3-(propan-2-yl)-3H-imidazo[4,5-c]pyridin-6-yl]-2-oxo-1-[(1S,3S)-3-(piperidin-1-yl)cyclobutyl]-1,2-dihydrospiro[indole-3,4′-piperidin]-1′-yl}carbonyl)-4-methylpiperidine-1-carbonyl]piperidin-1-yl}-2-methylphenyl)piperidine-2,6-dione] | 0.1 to 0.5 | 70 to 85 |  |
| CC(C)n1cnc2cc(-c3ccc4c(c3)N([C@H]3C[C@@H](N5CCCCC5)C3)C(=O)C43CCN(C(=O)[C@H]4CC[C@@H](C(=O)N5CCC(N(C)c6ccc(C7CCC(=O)NC7=O)cc6)CC5)CC4)CC3)nc(NC3CC3)c21 (mixture of isomers) [Example 228, (3RS)-3-{4-[methyl({1-[(1S,4S)-4-({6-[4-(cyclopropylamino)-3-(propan-2-yl)-3H-imidazo[4,5-c]pyridin-6-yl]-2-oxo-1-[(1S,3S)-3-(piperidin-1-yl)cyclobutyl]-1,2-dihydrospiro[indole-3,4′-piperidin]-1′-yl}carbonyl)cyclohexanecarbonyl]piperidin-4-yl})amino]phenyl}piperidine-2,6-dione] | 0.1 to 0.5 | 50 to 70 |  |
| CC(C)n1cnc2cc(-c3ccc4c(c3)N([C@H]3C[C@@H](N5CCCCC5)C3)C(=O)C43CCN(C(=O)CN4CCC(OCC#Cc5cccc6c5n(C)c(=O)n6C5CCC(=O)NC5=O)CC4)CC3)nc(NC3CC3)c21 (mixture of isomers) [Example 229, (3RS)-3-[4-(3-{[1-(2-{6-[4-(cyclopropylamino)-3-(propan-2-yl)-3H-imidazo[4,5-c]pyridin-6-yl]-2-oxo-1-[(1S,3S)-3-(piperidin-1-yl)cyclobutyl]-1,2-dihydrospiro[indole-3,4′-piperidin]-1′-yl}-2-oxoethyl)piperidin-4-yl]oxy}prop-1-yn-1-yl)-3-methyl-2-oxo-2,3-dihydro-1H-1,3-benzodiazol-1-yl]piperidine-2,6-dione] | < 0.1 | 70 to 85 |  |
| CC(C)n1cnc2cc(-c3ccc4c(c3)N(C3CC(N5CCCCC5)C3)C(=O)C43CCN(C(=O)C4CCC(C(=O)N5CCC(COc6ccc(C7CCC(=O)NC7=O)cc6)CC5)CC4)CC3)nc(NC3CC3)c21 (racemic) [Example 230, (3RS)-3-[4-({1-[(1R,4R)-4-({6-[4-(cyclopropylamino)-3-(propan-2-yl)-3H-imidazo[4,5-c]pyridin-6-yl]-2-oxo-1-[(1S,3S)-3-(piperidin-1-yl)cyclobutyl]-1,2-dihydrospiro[indole-3,4′-piperidin]-1′-yl}carbonyl)cyclohexanecarbonyl]piperidin-4-yl}methoxy)phenyl]piperidine-2,6-dione] | < 0.1 |  | C (C: >50%-<70%) |
| CC(C)n1cnc2cc(-c3ccc4c(c3)N([C@H]3C[C@@H](N5CCCCC5)C3)C(=O)C43CCN(C(=O)[C@H]4CCCN(C(=O)CC5CCN(c6ccc(C7CCC(=O)NC7=O)cn6)CC5)C4)CC3)nc(NC3CC3)c21 (mixture of isomers) [Example 231, (3RS)-3-[6-(4-{2-[(3S)-3-({6-[4-(cyclopropylamino)-3-(propan-2-yl)-3H-imidazo[4,5-c]pyridin-6-yl]-2-oxo-1-[(1S,3S)-3-(piperidin-1-yl)cyclobutyl]-1,2-dihydrospiro[indole-3,4′-piperidin]-1′-yl}carbonyl)piperidin-1-yl]-2-oxoethyl}piperidin-1-yl)pyridin-3-yl]piperidine-2,6-dione] | 0.1 to 0.5 | 50 to 70 |  |
| CC(C)n1cnc2cc(-c3ccc4c(c3)N([C@H]3C[C@@H](N5CCCCC5)C3)C(=O)C43CCN(C(=O)[C@@H]4CCN(C(=O)C5CCN(c6ccc(C7CCC(=O)NC7=O)cc6)CC5)C4)CC3)nc(NC3CC3)c21 (mixture of isomers) [Example 232, (3RS)-3-(4-{4-[(3R)-3-({6-[4-(cyclopropylamino)-3-(propan-2-yl)-3H-imidazo[4,5-c]pyridin-6-yl]-2-oxo-1-[(1S,3S)-3-(piperidin-1-yl)cyclobutyl]-1,2-dihydrospiro[indole-3,4′-piperidin]-1′-yl}carbonyl)pyrrolidine-1-carbonyl]piperidin-1-yl}phenyl)piperidine-2,6-dione] | < 0.1 | 70 to 85 |  |
| CC(C)n1cnc2cc(-c3ccc4c(c3)N([C@H]3C[C@@H](N5CCCCC5)C3)C(=O)C43CCN(C(=O)[C@@H]4CCCN(C(=O)[C@H]5CC[C@H](Oc6ccc(C7CCC(=O)NC7=O)cc6)CC5)C4)CC3)nc(NC3CC3)c21 (mixture of isomers) [Example 234, (3RS)-3-(4-{[(1R,4R)-4-[(3R)-3-({6-[4-(cyclopropylamino)-3-(propan-2-yl)-3H-imidazo[4,5-c]pyridin-6-yl]-2-oxo-1-[(1S,3S)-3-(piperidin-1-yl)cyclobutyl]-1,2-dihydrospiro[indole-3,4′-piperidin]-1′-yl}carbonyl)piperidine-1-carbonyl]cyclohexyl]oxy}phenyl)piperidine-2,6-dione] | < 0.1 | 70 to 85 |  |
| CC(C)n1cnc2cc(-c3ccc4c(c3)N([C@H]3C[C@@H](N5CCCCC5)C3)C(=O)C43CCN(C(=O)[C@@H]4CCCN(C(=O)CC5CCN(c6ccc(C7CCC(=O)NC7=O)cn6)CC5)C4)CC3)nc(NC3CC3)c21 (mixture of isomers) [Example 235, (3RS)-3-[6-(4-{2-[(3R)-3-({6-[4-(cyclopropylamino)-3-(propan-2-yl)-3H-imidazo[4,5-c]pyridin-6-yl]-2-oxo-1-[(1S,3S)-3-(piperidin-1-yl)cyclobutyl]-1,2-dihydrospiro[indole-3,4′-piperidin]-1′-yl}carbonyl)piperidin-1-yl]-2-oxoethyl}piperidin-1-yl)pyridin-3-yl]piperidine-2,6-dione] | < 0.1 | 70 to 85 |  |
